Results published in BindingDB's records for doi:10.1016/0014-2999(79)90202-4 (1979).

target: 5-hydroxytryptamine receptor 7 (Rattus norvegicus, UniProt P32305)
Sequence (P32305 whole entry): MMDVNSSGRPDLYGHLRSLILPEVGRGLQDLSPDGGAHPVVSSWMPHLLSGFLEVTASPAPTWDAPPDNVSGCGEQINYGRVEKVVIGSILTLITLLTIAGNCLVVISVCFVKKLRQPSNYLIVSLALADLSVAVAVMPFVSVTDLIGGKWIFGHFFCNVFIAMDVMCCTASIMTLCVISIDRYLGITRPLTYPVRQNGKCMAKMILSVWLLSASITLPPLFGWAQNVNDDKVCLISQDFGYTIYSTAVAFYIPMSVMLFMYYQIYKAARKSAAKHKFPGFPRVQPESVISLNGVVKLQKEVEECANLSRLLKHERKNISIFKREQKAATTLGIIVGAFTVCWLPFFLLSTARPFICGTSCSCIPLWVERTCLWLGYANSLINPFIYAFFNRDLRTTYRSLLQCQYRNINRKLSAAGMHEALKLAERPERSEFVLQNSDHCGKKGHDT

SMILES	Ki
COc1cc2nc(N3CCN(C(=O)c4ccco4)CC3)nc(N)c2cc1OC [[3H]-Minipress]	0.0001 µM
CNCC(O)c1ccc(O)c(O)c1 (stereo unspecified) [EPINEPHRINE]	0.6 µM
CC(COc1ccccc1)N(CCCl)Cc1ccccc1 (stereo unspecified)	0.0009 µM
Cc1cc(C(C)(C)C)c(O)c(C)c1CC1=NCCN1 [SMR000059324]	0.023 µM
c1ccc(CC2=NCCN2)cc1 [Tolazoline]	2 µM
O=C(NC1CCN(CCc2c[nH]c3ccccc23)CC1)c1ccccc1 [N-{1-[2-(1H-Indol-3-yl)-ethyl]-piperidin-4-yl}-benzamide(indoramin)]	0.005 µM
c1cc2c(c(NC3=NCCN3)c1)CCCC2	0.29 µM
c1ccc2c(c1)OCC(CN1CCCCC1)O2 (stereo unspecified) [Piperoxan]	0.36 µM
COc1cccc(OC)c1OCCNCC1Oc2ccccc2OC1c1ccccc1 (stereo unspecified) [NSC_185453]	0.001 µM
c1ccc2c(CC3=NCCN3)cccc2c1 [Naphazoline]	0.043 µM
CNC[C@H](O)c1cccc(O)c1 [PHENYLEPHRINE]	1.4 µM
